Results from patent US20200121620A1, “SENOLYTIC COMPOUNDS” (UNITED KINGDOM RESEARCH AND INNOVATION, priority 2017, published 2020).

Key:
[1] = test system: senescent human fibroblasts; settings: Lui et al, Sci Rep 2015; cited from earlier work
IMR90 ER:RAS cells = test: Senolytic activity in IMR90 ER:RAS cells undergoing oncogene-induced senescence (4OHT) vs DMSO-treated non-senescent cells; settings: 4OHT vs DMSO; FIG. 11
Description: FIG. 1: (A) IMR90 ER:RAS cells were induced to undergo senescence by treating them with 100 nM 4OHT for 6 days. At that point, 10 μM of the indicated drugs was added. In parallel, the same treatments were carried out in IMR90 ER:RAS cells treated with DMSO (−4OHT). […] Cells were fixed at day 6, 8 and 10 after 4OHT induction and stained with crystal violet to assess cell viability. T, Tyr-AG879; P, PF-573228; C, Cyclosporine. (B) A similar experiment to (A) was conducted and cells at day 10 post-induction were fixed and stained with DAPI to assess cell numbers
In the setup used, IMR90 ER:RAS cells were treated with 100 nM 4OHT to induce OIS (oncogene induced senescence) and activate the ER:RAS fusion protein. 6 days after 4OHT induction (+4OHT), once cells were fully senescent, the agents to be tested were added at a concentration of 10 μM, and cell numbers were assessed 4 days after by DAPI stained couple to automated microscopy. Alternatively, cells were fixed and stained with crystal violet. In parallel, the same treatments were carried out in IMR90 ER:RAS cells treated with DMSO (−4OHT).
IMR90 ER:RAS cells were induced to undergo senescence by treating them with 100 nM 4OHT for 6 days. At that point, 10 μM of the indicated drugs was added. In parallel, the same treatments were carried out in IMR90 ER:RAS cells treated with DMSO (−4OHT). […] Cells were fixed at day 6, 8 and 10 after 4OHT induction and stained with crystal violet to assess cell viability. A similar experiment was conducted and cells at day 10 post-induction were fixed and stained with DAPI to assess cell numbers (see FIG. 1).
IMR90 ER:RAS E6/E7 cells = test: Killing of IMR90 ER:RAS E6/E7 cells (RAS signalling without senescence); assay type: cell-based, human; settings: 1, 5 and 10 μM; 4OHT vs DMSO; FIG. 5
Description: In these experiments the compounds were tested side by side with a control ABT-263 (the de facto gold standard senolytic compound) (Chang et al., 2016; Yosef et al., 2016; Zhu et al., 2016). Experiments were conducted to test the ability of the compounds to behave as senolytics during OIS (using IMR90 ER:RAS, FIG. 3 and HMEC hTERT ER:RAS, FIG. 4). […] To understand whether the selective killing of senescent IMR90 ER:RAS was a consequence of senescence induction or of activation of RAS signaling, experiments were conducted in isogenic IMR90 ER:RAS E6/E7 cells. In these cells, RAS signalling is induced by adding 100 nM 4OHT that activates the ER:RAS fusion protein. However, expression of the E6/E7 protein prevents senescence induction.

[2] = test system: senescent cells in the lung; test: Elimination of senescent cells induced by whole body irradiation in mice; assay type: in vivo; settings: 6 Gray whole body irradiation; 2 months later treated for 4 consecutive days; FIG. 16
From the text: (A) Experimental set up, mice (n=5 per group) were irradiated with 6 Gray to induce senescence. […] (B) Cryosections of lungs obtained from control and irradiated mice were stained with hematoxilin and eosin (to reveal tissue architecture), and SA-β-Gal (to reveal senescent cells). Senescent cells accumulate in the bronchioles of irradiated mice. (C) Quantification of the lung area positive for SA-β-Gal staining. […] (D). Representative pictures of lung cryosections.
Whole-body irradiation is known to cause senescence. In irradiated mice, senescent cells accumulate in different tissues, including the lung (Chang et al., 2016; Yosef et al., 2016).

Structure (SMILES)	senescence-associated secretory phenotype (SASP) [1]	senolytic effect of statins, preferential killing of cells undergoing OIS (IMR90 ER:RAS cells)	selectivity for killing IMR90 ER:RAS E6/E7 (IMR90 ER:RAS E6/E7 cells)	lung area positive for SA-β-Gal staining (senescent cells) [2]
CCC(C)(C)C(=O)O[C@H]1C[C@@H](C)C=C2C=C[C@H](C)[C@H](CC[C@@H]3C[C@@H](O)CC(=O)O3)[C@H]21 [Simvastatin]	decrease the senescence-associated secretory phenotype (SASP)	behaves as a senolytic in a concentration dependent manner		
c1ccc2c(c1)[IH]c1ccccc1-2 [Diphenyleneiodonium chloride]			displayed selectivity for killing IMR90 ER:RAS E6/E7	partially eliminated
